# Species on record: Mus musculus
# Assay: Induction of glucose-triggered insulin secretion in BALB/c mouse islets of langerhans measured per islets incubated for 60 mins by ELISA analysis (reference value: 11.8 +/- 0.8 ng/hr)
# Format: functional
# Details: 1 h
row,Structure (SMILES),Activity
1,COC(=O)[C@]1(C)CCC[C@@]2(C)C3=C(C)C(=O)O[C@@H](C4=CC(=O)OC4O)[C@@H]3[C@@H](OC(C)=O)[C@]12O (stereo not given in full),16.4 ng/h
2,COC(=O)[C@]1(C)CCC[C@@]2(C)[C@@]3(O)[C@@H]([C@@H](OC(C)=O)[C@@]21O)[C@H](c1ccoc1)OC(=O)[C@@H]3C,24.7 ng/h
3,C[C@@H]1C(=O)O[C@@]23CC[C@@]4(C)C(=O)OC[C@]45O[C@@](c4ccoc4)(C[C@H]1[C@]25C)O3,25.5 ng/h
4,COC(=O)[C@]1(C)CCC[C@@]2(C)C3=C(C)C(=O)O[C@@H](c4ccoc4)[C@@H]3[C@@H](OC(C)=O)[C@]12O,9.3 ng/h
5,COC(=O)[C@]1(C)CC[C@@H](O)[C@@H]2C3=C(C)C(=O)O[C@@H](c4ccoc4)[C@@H]3[C@@H](OC(C)=O)[C@H]21,14.6 ng/h
6,C[C@@H]1C(=O)O[C@@]23COC(=O)[C@]2(C)CCC(=O)[C@@]3(C)[C@@H]1CC(=O)c1ccoc1,16.3 ng/h
7,CC(=O)O[C@@H]1[C@@H]2C(=C(C)C(=O)O[C@H]2c2ccoc2)[C@]2(C)[C@@H]3CC[C@@](C)(C(=O)O3)[C@@H]12,8 ng/h
8,COC(=O)[C@]1(C)CCC[C@]2(C)[C@H]1[C@H](OC(C)=O)[C@H]1[C@H](c3ccoc3)OC(=O)[C@H](C)[C@]12O,7.5 ng/h
9,COC(=O)[C@]1(C)CCC[C@@]2(C)[C@@]3(O)[C@@H]([C@@H](O)[C@@]21O)[C@H](c1ccoc1)OC(=O)[C@@H]3C,8.2 ng/h
10,C[C@H]1C(=O)O[C@@]23COC(=O)[C@]2(C)CCC(=O)[C@@]3(C)[C@@H]1CC(=O)c1ccoc1,18.4 ng/h
11,C[C@H]1C(=O)O[C@@H](c2ccoc2)C[C@H]1[C@@]1(C)CCC[C@@]2(C)C(=O)OC[C@H]12,10.6 ng/h
12,CC(=O)O[C@H]1[C@@H]2[C@@H]([C@@H](C)C(=O)O[C@H]2c2ccoc2)[C@@]23CCC[C@@](C)(C(=O)OC2O)[C@@]13O (stereo not given in full),16.6 ng/h
13,C[C@@H]1C(=O)O[C@@]23CC[C@@]4(C)C(=O)OC[C@]45O[C@@](C4=C[C@H](O)OC4=O)(C[C@H]1[C@]25C)O3,25.5 ng/h
14,C[C@H]1C(=O)O[C@@]23COC(=O)[C@]2(C)CC[C@@]2(O)O[C@H](c4ccoc4)C[C@H]1[C@@]32C,30.7 ng/h
15,C[C@@H]1C(=O)O[C@@]23CC[C@@]4(C)C(=O)OC[C@]45O[C@@](C4=C[C@@H](O)OC4=O)(C[C@H]1[C@]25C)O3,18.3 ng/h
16,CCCCNC(=O)NS(=O)(=O)c1ccc(C)cc1 [TOLBUTAMIDE],19.9 ng/h
17,COC(=O)[C@]1(C)CCCC2=C1[C@@H](OC(C)=O)[C@H]1[C@H](c3ccoc3)OC(=O)[C@@H](C)[C@@]21O,12.5 ng/h
18,C[C@@H]1C(=O)O[C@@]23CC[C@@]4(C)C(=O)OC[C@]45O[C@@](C4=CC(=O)OC4O)(C[C@H]1[C@]25C)O3 (stereo not given in full),20.8 ng/h
19,C[C@@H]1C(=O)O[C@@H](c2ccoc2)C[C@H]1[C@@]1(C)CCC[C@@]2(C)COC(=O)[C@@H]21,16.9 ng/h
20,CC(=O)O[C@@H]1[C@H]2[C@H](c3ccoc3)OC(=O)[C@H](C)[C@@]2(O)[C@@]23CCC[C@@](C)(C(=O)OC2)[C@@]13O,8 ng/h

# Source: ChEMBL document CHEMBL5316363, “Compounds Related to Saudin and Three New Series of Diterpenoids from Clutia lanceolata” (2023)
